The experiment relates to HIV-1 (H9/IIIB strain). The experiment in a line: Multiple round HIV-1 infection assay in MT4-GFP cells (wild type cell assay, Viking). The note with it: MT4-GFP cells infected with HIV-1 H9/IIIB, inhibition of reproductive ratio R0, ~48 h and ~72 h post-infection. The class given is cell-based. How it is done: The antiviral activity of the Examples herein was assessed in an assay that measures the rate of replication of HIV in cell culture, and performed according to the following procedure. HIV-1 replication was monitored using MT4-gag-GFP clone D3 (hereafter designated MT4-GFP), which are MT-4 cells modified to harbor a GFP reporter gene, the expression of which is dependent on the HIV-1 expressed proteins tat and rev. Productive infection of an MT4-GFP cell with HIV-1 results in GFP expression approximately 24 h post-infection. MT4-GFP cells were maintained at 37° C./5% CO2/90% relative humidity in RPMI 1640 supplemented with 10% fetal bovine serum, 100 U/ml penicillin/streptomycin, and 400 μg/ml G418 to maintain the reporter gene. For infections, MT4-GFP cells were placed in the same medium lacking G418 and infected overnight with HIV-1 (H9/IIIB strain) virus at an approximate multiplicity of infection of 0.01 in the same incubation conditions. Cells were then washed and re-suspended in either RPMI 1640 at 2×10^5 cells/mL (0% NHS condition) or 100% normal human serum (NHS) at 2×10^5 cells/mL (100% NHS condition). Compound plates were prepared by dispensing compounds dissolved in DMSO into wells of 384 well poly-D-lysine-coated plates (0.2 μl/well) using an ECHO acoustic dispenser. Each compound was tested in a 10-point serial 3-fold dilution (typical final concentrations: 1050 nM-0.05 nM for 0% NHS condition or 42 μM-2.13 nM for 100% NHS condition). Controls included no inhibitor (DMSO only) and a combination of three antiviral agents (efavirenz, indinavir, an in-house integrase strand transfer inhibitor at final concentrations of 4 μM each). Cells were added ([…]) to compound plates and the infected cells were maintained at 37° C./5% CO2/90% relative humidity.
Infected cells were quantified at two time points, ˜48 h and ˜72 h post-infection, by counting the number of green cells in each well using an Acumen eX3 scanner. The increase in the number of green cells over ˜24 h period gives the reproductive ratio, R0, which is typically 5-15 and has been shown experimentally to be in logarithmic phase (data not shown). Inhibition of R0 is calculated for each well, and IC50s determined by non-linear 4-parameter curve fitting.

Setting [1] is: 0% NHS condition (RPMI 1640), read-out: WILD TYPE CELL ASSAY Viking IP (0% NHS).
[2] abbreviates: 100% normal human serum condition, read-out: WILD TYPE CELL ASSAY Viking IP (100% NHS).
Where [3] appears, read: Human immunodeficiency virus 1, IIIB, 0% NHS condition (RPMI 1640), read-out: WILD TYPE CELL ASSAY Viking IP (0% NHS).

Like-named read-outs stand apart in the source and are kept apart here.

As for `CC1C(O)c2c(C(=O)NCc3ccc(F)cc3F)c(=O)c(O)c3n2C1(C)CN(C)C3=O` (single isomer, unassigned) [Compound 80], the IC50 stood at 2.8 nM under setting [1] and 192 nM under setting [2].

Turning to `CCC12CC(O)c3c(C(=O)NCc4ccc(F)cc4F)c(=O)c(O)c(n31)C(=O)N(C)C2` (single isomer, unassigned) [Compound 39], the IC50 is, setting by setting: under setting [1], 2.1 nM; under setting [2], 322 nM.

For the compound `CC1C(O)c2c(C(=O)NCc3ccc(F)cc3F)c(=O)c(O)c3n2C1(C)CN(C)C3=O` (single isomer, unassigned) [Compound 77], the IC50 amounted to 3.3 nM under setting [1] and 4470 nM under setting [2].

Consider `CCC12CC(O)c3c(C(=O)NCc4cccc(Cl)c4F)c(=O)c(O)c(n31)C(=O)N(C)C2` (single isomer, unassigned) [Compound 43], for which the IC50 reads like this: under setting [1], 3.7 nM; under setting [2], 1270 nM.

For the compound `CN1CC2(C)CC(O)c3c(C(=O)NCc4c(F)cc(F)cc4F)c(=O)c(O)c(n32)C1=O` (single isomer, unassigned) [Compound 25], the IC50 by setting is: under setting [3], 1.4 nM; under setting [2], 1700 nM.

Consider `CC1C(O)c2c(C(=O)NCc3ccc(F)cc3F)c(=O)c(O)c3n2C1(C)CN(C)C3=O` (single isomer, unassigned) [Compound 74], for which the IC50 under setting [1] was determined as 1.6 nM and the IC50 under setting [2] stood at 38.4 nM.

With `CCN1CC2(COC)CC(O)c3c(C(=O)NCc4c(F)cc(F)cc4F)c(=O)c(O)c(n32)C1=O` (single isomer, unassigned) [Compound 61], the IC50 reads like this: under setting [3], 2.3 nM; (Human immunodeficiency virus 1, IIIB, 100% normal human serum condition, read-out: WILD TYPE CELL ASSAY Viking IP (100% NHS)) 95.9 nM.

Values taken from patent publication US20210115044A1, “TRICYCLIC HETEROCYCLE COMPOUNDS USEFUL AS HIV INTEGRASE INHIBITORS” (Merck Sharp & Dohme Corp., priority 2018, published 2021).
